For data set [1], the species on record is Mus musculus. Nature of the data set: Toxicity in mouse at 20 mg as single dose. It counts as organism-based. To be noted: in vivo.
For data set [2], the species on record is Mus musculus. Put plainly: Antiinflammatory activity against MOG peptide-induced experimental autoimmune encephalomyelitis mouse model assessed as CD3 marker measured on day 24 after 2 weeks of treatment (reference value: 4.8 +/- 0.19 /mm'2). In kind it is functional.
For data set [3], the species on record is Mus musculus. Put plainly: Toxicity in mouse at 10 mg for 5 days. In kind it is organism-based. To be noted: in vivo, 120 h.

Regarding `CC1(C)NC(=O)N(CN2CCNCC2)C1=O`, the Activity entry is listed as “Non-toxic” in the data set listed under Mus musculus [1], 3.8 mm2 in the data set listed under Mus musculus [2] and “Non-toxic” in the data set listed under Mus musculus [3].

For the origin of these results see ChEMBL document CHEMBL2311391, “Novel inhibitors of protein arginine deiminase with potential activity in multiple sclerosis animal model” (J Med Chem, 2013).
